{"source": "patent US20240294491A1", "about": "“SALT OF HETEROCYCLIC COMPOUND WITH ANTI-MALARIA ACTIVITY, AND CRYSTALS THEREOF” (priority 2021, published 2024)", "key": {"[1]": {"test_system": "Pf3D7^0087N9 strain of Plasmodium falciparum", "assay": "drug efficacy evaluation with a humanized mouse malaria model", "format": "in vivo", "details": "humanized NSG mice, oral once per day for 3 days, treatment initiated 72 hours after infection, infection rate by flow cytometry", "experimental": "The following drug efficacy evaluation with a humanized mouse malaria model was carried out by The Art of Discovery S. L. (Vizcaya, Spain) with use of compound (I). In short, erythrocytes infected with Plasmodium falciparum were intravenously inoculated into mice with transplanted human erythrocytes, and drug treatment was initiated after the lapse of 72 hours. The therapeutic effect in terms of infection rates was evaluated by determining the proportion of infected erythrocytes in peripheral blood.\nUsed in the present test was a Pf3D7^0087N9 strain of Plasmodium falciparum, which was produced according to study described in Reference (1) shown below. Human erythrocytes were transplanted into female NSG (NOD-scid IL-2Rγnull) immunodeficient mice, and the proportion of human erythrocytes in all the erythrocytes in peripheral blood was maintained to be 40% or more throughout the test period. […] Specifically, 2 μL of peripheral blood collected from an infected mouse was stained with TER-119-Phycoeruthrine (mouse erythrocyte marker) and SYTO-16 (dye for nucleic acid staining), and analyzed by flow cytometry. […] 2008 May 21; 3(5):e2252. • (2) Jimenez-Diaz et al. Quantitative measurement of Plasmodium-infected erythrocytes in murine models of malaria by flow cytometry using bidimensional assessment of SYTO-16 fluorescence. […]"}, "[2]": {"test_system": "3D7 strain of Plasmodium falciparum (drug-sensitive strain)", "assay": "in vitro antimalarial activity, p-LDH colorimetric protozoan growth assay, 3D7 strain", "format": "cell-based", "details": "72 hours culture, p-LDH colorimetry, read-out: 50% protozoan-growth-inhibitory concentration (IC50 value)", "experimental": "(§1) With use of 3D7 and K1 strains, which are a drug-sensitive strain and drug-resistant strain of Plasmodium falciparum, respectively, provided by The Tropical Disease Research Center, Kitasato University, the in vitro antimalarial activity of the compound for these plasmodia was determined. In culture of the test protozoan parasites, maintenance and subculture were performed with a partially modified version of a method by Trager and Jensen (Trager, W and Jensen, J.: Human malaria parasites in continuous culture, Science, 193:673-677, (1976)), and the resultants were used. […]\n(§2) The protozoan infection rate was maintained within the range of 0.25 to 10%. Drug sensitivity test was carried out with a modified version of a method by Desjardins et al. (Desjardins, R. E., Canfield, C. J., Haynes, D. E. and Chulay, J. D.: Quantitative assessment of antimalarial activity in vitro by a semiautomated microdilution technique. Antimicrob. Agents Chemother., 16:710-718 (1979)). […] Blue formazan, a product generated through the reaction, was detected by measuring absorbance at a measurement wavelength of 660 nm by using a microplate reader to determine the presence or absence of protozoan growth by colorimetry. […]"}, "[3]": {"test_system": "K1 strain of Plasmodium falciparum (drug-resistant strain)", "assay": "in vitro antimalarial activity, p-LDH colorimetric protozoan growth assay, K1 strain", "format": "cell-based", "details": "K1, 72 h, read-out: 50% protozoan-growth-inhibitory concentration (IC50 value)", "experimental": "as §1, §2"}}, "note": "Values joined by “and” are separate entries in the source; they are usually repeats but may differ in a detail not shown here. Identical values can stand only once."}
{"smiles": "C[C@@H](Oc1ccc(CNC(=O)c2cc(-n3cnc(C(F)(F)F)n3)c(N)nc2N)cc1)C(F)(F)F", "note": "[compound (I), 2,6-diamino-5-[3-(trifluoromethyl)-1H-1,2,4-triazol-1-yl]-N-(4-{[(2R)-1,1,1-trifluoropropan-2-yl]oxy}benzyl)pyridine-3-carboxamide]", "values": [{"measurement": "ED90 (daily dose with which the infection rate on day 7 after the infection decreased by 90% from that in a nontreatment group)", "setting": "[1]", "value": 3.2, "unit": "mg/kg/day"}, {"measurement": "IC50", "setting": "[2]", "value": "0.026 µg/mL and 53 nM"}, {"measurement": "IC50", "setting": "[3]", "value": "0.043 µg/mL and 89 nM"}]}
